Laboratory results from paper PMC7876056, “Population Pharmacokinetic Analysis of Yimitasvir in Chinese Healthy Volunteers and Patients With Chronic Hepatitis C Virus Infection” (Frontiers in Pharmacology, 2021).
“And” between values parts separate entries of the source, which are not always exact repeats. Equal entries are not always repeated. “Also recorded” adds a separate entry of the source. Where two headings read alike, the source gives them in different places.

Legend:
[1] = Population pharmacokinetic model (Phoenix NLME, FOCE-ELS) of yimitasvir in Chinese healthy volunteers and HCV infection patients; assay type: in vivo, human
Method: (§1) The current population PK analysis of yimitasvir was performed using rich and sparse PK samples collected from six clinical pharmacology trials [4 phase 1 ([Zhao et al., 2019]), 1 phase 1b ([Zhang et al., 2018]) and 1 phase 2 studies] in Chinese healthy volunteers and HCV-infected patients. Rich sampling entailed serial blood sampling at defined time points, and sparse sampling (single sample) only in phase 2 study entailed blood collection at every study visits. Patients with genotype 1 HCV infection were eligible, while patients with prior use of direct-acting antiviral agents (DAA) for HCV infection treatment were excluded in phase 1b and phase 2 studies.
A fully validated liquid chromatography-tandem mass spectrometry (LC-MS/MS) method determining yimitasvir concentration in phase 1 and phase 1b studies had been reported elsewhere ([Zhang et al., 2018]; [Zhao et al., 2019]).
Plasma concentration of yimitasvir in phase 2 study was analyzed using a validated LC-MS/MS method equipped with a Shimadzu LC-30AD liquid chromatography-SCIEX API6500 mass spectrometer. Chromatographic retention and separation were achieved on a XBridge Peptide BEH C18, 50 × 2.1 mm, 3.5 μm column. Gradient elution was used with 2 mM ammonium acetate in water with 0.1% formic acid as mobile phase A and acetonitrile:methanol (30:70, v:v) as mobile phase B at a flow rate of 0.5 ml min^−1. The column temperature was maintained at 45°C. Quantitation was accomplished in positive mode with precursor-to-production pairs of m/z 428.5→315.3 for yimitasvir and m/z 432.5→319.5 for the internal standard d8-DAG (isotope-labelled yimitasvir), respectively.
Population pharmacokinetic analysis of yimitasvir was performed by Phoenix NLME software (Version 8.1, Certara) using the first-order conditional estimation-extended least squares (FOCE-ELS) method.
The structural model was first tested by fitting a one-compartment or two-compartment model to the log-transformed PK data. Different absorption models including first-order absorption with or without a lag time, sequential zero-first order absorption, transit absorption and saturable Michaelis-Menten absorption model, were also tested. The optimal structural model was selected based on the Akaike Information Criteria (AIC), minimization success, visual inspection of goodness-of-fit plots and individual fit.
Inter-subject variability was estimated by exponential model for PK parameters as follows (Eq. 1): θi=θTV×e^ηi, (1) where θi is the parameter estimation for the ith individual, θTV is the typical value of the parameter estimation in the population, ηi is a random variable which assumed to be normally distributed with a mean of 0 and a variance of ω^2. Proportional error model and proportional plus additive error model were tested as residual error models.
Sigmoidal maximum effect (Emax) (Eq. 2) and linear models (Eq. 3) were tested to quantify the relationship between bioavailability and dose: {F=θF ,Dose≤100 mgF=θF−Fmax×(Dose−100)/(F50+(Dose−100)),Dose>100 mg, (2) where θF is the bioavailability in individuals who received ≤100 mg yimitasvir, which was fixed to 1. Fmax is the maximal reduction in bioavailability and F50 is the dose associated with a half-maximal reduction in bioavailability. {F=θF ,Dose≤100 mgF=θF −Alpha×(Dose−100)/100,Dose>100 mg, (3) where Alpha is a slope term determining the relative change in bioavailability for each 100 mg increase in yimitasvir dose.
Subsequently, different covariates were tested using a stepwise forward inclusion [a decrease in objective function value (OFV) of > 6.63, p < 0.01] and a stricter backward exclusion procedure (an increase in OFV of > 10.83, p < 0.001). […]

[2] = tested on: chronic HCV genotype 1 infection; test: Phase 2 study of yimitasvir with sofosbuvir in patients with chronic HCV infection; assay type: in vivo, human; conditions: for Adverse reaction rate: with 400 mg sofosbuvir
Method: In phase 2 study, yimitasvir 100 or 200 mg was administered once daily for 12 weeks in combination with 400 mg sofosbuvir in patients with chronic HCV infection. […] The primary endpoint of phase 2 study was sustained virologic response [HCV RNA less than lower limit of quantification (LLOQ)] 12 (SVR12) weeks after the completion of treatment. SVR12 rates were achieved 100% in both 100 mg yimitasvir/400 mg sofobuvir and 200 mg yimitasvir/400 mg sofobuvir groups. […] The most common adverse reactions were neutropenia (3.9%), leukopenia (3.1%), hypercholesterolemia (3.1%) and fatigue (3.1%).
as §1

[3] = dogs; cited from earlier work
[4] = monkeys; cited from earlier work
CYP 3A4 = conditions: cited from earlier work
[5] = final model estimate (RSE%), food = 2, high-fat meal
[6] = 100 or 200 mg with 400 mg sofosbuvir

With `COC(=O)NC(C(=O)N1CCCC1c1ncc(-c2ccc(-c3ccc(-c4ccc5nc(C6CCCN6C(=O)C(NC(=O)OC)C(C)C)[nH]c5c4)c4c3C3CCC4C3)cc2)[nH]1)C(C)C` (stereo not drawn) [yimitasvir] the “Relative bioavailability of 200 mg to 100 mg” value ([1]; according to the final model) was 87.1%, the “Relative bioavailability of 400 mg to 100 mg” value ([1]; according to the final model) was 61.3% and the “CL/F ∼ ALT (covariate coefficient, power)” value ([1]; bootstrap mean) was −0.0955 (−15.3). For the same compound, the “CL/F ∼ Female (covariate coefficient)” value ([1]; bootstrap mean) was −0.250 (−14.6), the “F ∼ Food1 (covariate coefficient)” value ([1]; bootstrap mean) was −0.312 (−34.9) and the “F ∼ Food2 (covariate coefficient)” value ([1]; bootstrap mean) was −0.473 (−19.8). The “Ka ∼ Food1 (covariate coefficient)” value ([1]; bootstrap mean) was −1.72 (−10.5), the “Ka ∼ Food2 (covariate coefficient)” value ([1]; bootstrap mean) was −2.43 (−7.4) and the “Random effect CL/F (inter-individual variability)” value ([1]; bootstrap mean) was 0.483 (5.8). The “Random effect CL/F ∼ V1/F (covariance)” value ([1]; bootstrap mean) was 0.562 (8.1), the “Random effect V1/F (inter-individual variability)” value ([1]; bootstrap mean) was 0.729 (11.0) and the “Residual error σ (proportional)” value ([1]; bootstrap mean) was 0.304 (3.4). The “Td ∼ Patient (covariate coefficient)” value ([1]; bootstrap mean) was −0.403 (−27.9), the CL/F ([1]; bootstrap mean (n = 1,000)) was 13.8 (3.7) l h^−1 and the Ka ([1]; bootstrap mean (n = 1,000)) was 1.38 (13.7) h^−1. The Q/F ([1]; bootstrap mean (n = 1,000)) was 4.04 (16.8) l h^−1, the Td ([1]; bootstrap mean (n = 1,000)) was 2.22 (7.2) h and the V1/F ([1]; bootstrap mean (n = 1,000)) was 189 (5.6) l. The V2/F ([1]; bootstrap mean (n = 1,000)) was 59.1 (9.1) l, the “Effect of age and BW on PK properties” value ([1]; covariate screening) was “no effect” and the “Decrease of bioavailability (F) for each 100 mg dose increase” value ([1]; dose > 100 mg, linear model) was 12.9%. The “Covariance of inter-individual variability of CL/F and V1/F” value ([1]; final model) was 56.5%, the “Inter-individual variability for CL/F” value ([1]; final model) was 48.5% and the “Inter-individual variability for V1/F” value ([1]; final model) was 73.6%. For the same compound, the “CL/F ∼ Female (covariate coefficient)” value ([1]; final model estimate (RSE%)) was −0.251 (−14.2), the Q/F ([1]; final model estimate (RSE%)) was 3.96 (14.7) l h^−1 and the “Random effect CL/F (inter-individual variability)” value ([1]; final model estimate (RSE%)) was 0.485 (3.8). For the same compound, the “Random effect CL/F ∼ V1/F (covariance)” value ([1]; final model estimate (RSE%)) was 0.565 (5.1), the “Random effect V1/F (inter-individual variability)” value ([1]; final model estimate (RSE%)) was 0.736 (6.9) and the “Residual error σ (proportional)” value ([1]; final model estimate (RSE%)) was 0.305 (0.7). The “Td ∼ Patient (covariate coefficient)” value ([1]; final model estimate (RSE%)) was −0.416 (−10.7), the V2/F ([1]; final model estimate (RSE%)) was 58.6 (6.9) l and the “CL/F ∼ ALT (covariate coefficient, power)” value ([1]; final model estimate (RSE%), baseline ALT normalised to median) was −0.0950 (−21.2). The Ka ([1]; final model estimate (RSE%), first-order absorption rate, typical healthy male volunteer, ALT 31.6 IU l^−1, fasted) was 1.31 (7.2) h^−1, the “Ka ∼ Food1 (covariate coefficient)” value ([1]; final model estimate (RSE%), food = 1, evening, fasted at least 4 h after dinner) was −1.71 (−5.5) and the “F ∼ Food1 (covariate coefficient)” value ([1]; final model estimate (RSE%), food = 1, fasted at least 4 h) was −0.341 (−26.3). For the same compound, the “F ∼ Food2 (covariate coefficient)” value [1, 5] was −0.485 (−31.2), the “Ka ∼ Food2 (covariate coefficient)” value [1, 5] was −2.40 (−3.7) and the “Td (duration of zero-order absorption)” value ([1]; final model estimate (RSE%), healthy volunteers) was 2.17 h and 2.17 (4.4) h. For the same compound, the “CL/F (apparent oral clearance)” value ([1]; final model estimate (RSE%), typical healthy male volunteer, ALT 31.6 IU l^−1, fasted) was 13.8 l h^−1 and 13.8 (4.1) l h^−1, the “Higher CL/F in male subjects than females” value ([1]; human, in vivo) was 22.2% and the Vd/F ([1]; human, plasma, oral, final model estimate (RSE%), typical healthy male volunteer, ALT 31.6 IU l^−1, fasted, read-out: V1/F (central volume of distribution)) was 188 L. For the same compound, the “Zero-order absorption duration (Td)” value ([1]; patients) was 1.43 h, the “Decrease of F by high-fat meal” value ([1]; vs fasted) was 38.5% and the “Decrease of Ka by high-fat meal” value ([1]; vs fasted) was 90.9%. It also gave an Adverse reaction rate ([2]; 100 mg group) of 35.9%, an SVR12 rate ([2]; 100 mg yimitasvir/400 mg sofosbuvir once daily for 12 weeks) of 100% and an Adverse reaction rate ([2]; 200 mg group) of 36.9%. For the same compound, the SVR12 rate ([2]; 200 mg yimitasvir/400 mg sofosbuvir once daily for 12 weeks) was 100%, the “Effect of co-medication of sofosbuvir on PK profile” value ([2]; 400 mg sofosbuvir) was “did not affect; also recorded: not affected by co-medication of sofosbuvir” and the “Adverse reaction: fatigue” value [2, 6] was 3.1%. For the same compound, the “Adverse reaction: hypercholesterolemia” value [2, 6] was 3.1%, the “Adverse reaction: leukopenia” value [2, 6] was 3.1% and the “Adverse reaction: neutropenia” value [2, 6] was 3.9%. The “Severity of adverse reactions” value ([2]; most common adverse reactions) was “grade 1 or 2; also recorded: grade one or two”, the “Dose proportionality of exposure” value ([2]; patients, 100 or 200 mg with 400 mg sofosbuvir) was “Less than dose proportionality” and the “SVR12 rate (primary endpoint)” value ([2]; phase 2 study overall, taken at least 2 h before or after a meal in most patients) was 100%. The “Metabolism in hepatic microsomes” value [3] was “No metabolism”, the “Metabolism in hepatic microsomes” value [4] was “No metabolism” and the “Inhibition of CYP3A4” value (CYP 3A4) was “does not inhibit”.
